The values that follow come from ChEMBL document CHEMBL4513161, “CO-ADD screening of MMV (CH) - Pandemic Response Box” (2021).

The structures appear in SMILES notation. ≈ marks a conversion by molar mass, not a printed value.

Test [1] deals with Pseudomonas aeruginosa. Kind of test: microbe, parasite or virus in culture. Conditions: ATCC 27853, 18 h, ASSAY_TEST Inhibition of Bacterial Growth, detection method Absorption (OD600), MEDIA CAMHB, plate type 384well, NBS, CORNING #3640.
Description: Antibacterial activity against Pseudomonas aeruginosa ATCC 27853 (CO-ADD:GN_042); MIC in CAMBH media using NBS plates, by OD(600)
For test [2], the system named is Pseudomonas aeruginosa. Kind of test: Antibacterial activity against Pseudomonas aeruginosa PAO397 [PAO1 d(mexAB-oprM) d(mexCD-oprJ) d(mexEF-oprN) d(mexJKL) d(mexXY) d(opmH)] (CO-ADD:GN_211); MIC in CAMBH media using NBS plates, by OD(600). Format: functional. Particulars: ASSAY_TEST Inhibition of Bacterial Growth, detection method Absorption (OD600), MEDIA CAMHB, plate type 384well, CORNING #3640, time 18 hr.

Test [3] relates to Escherichia coli. Kind of test: microbe, parasite or virus in culture. Conditions: ATCC 25922, 18 h, ASSAY_TEST Inhibition of Bacterial Growth, detection method Absorption (OD600), MEDIA CAMHB, plate type 384well, NBS, CORNING #3640.
Description: Antibacterial activity against Escherichia coli ATCC 25922 (CO-ADD:GN_001); MIC in CAMBH media using NBS plates, by OD(600)
The subject of test [4] is Staphylococcus aureus. Kind of test: microbe, parasite or virus in culture. Particulars: ATCC 43300, 18 h, ASSAY_TEST Inhibition of Bacterial Growth, detection method Absorption (OD600), MEDIA CAMHB, plate type 384well, NBS, CORNING #3640.
Description: Antibacterial activity against Staphylococcus aureus MRSA ATCC 43300 (CO-ADD:GP_020); MIC in CAMBH media, using NBS plates, by OD(600)
The test system of test [5] is Acinetobacter baumannii. Kind of test: microbe, parasite or virus in culture. Conditions: ATCC 19606, 18 h, ASSAY_TEST Inhibition of Bacterial Growth, detection method Absorption (OD600), MEDIA CAMHB, plate type 384well, NBS, CORNING #3640.
Description: Antibacterial activity against Acinetobacter baumannii ATCC 19606 (CO-ADD:GN_034); MIC in CAMBH media using NBS plates, by OD600
Test [6] has as its system Klebsiella pneumoniae. Kind of test: microbe, parasite or virus in culture. Conditions: ATCC 700603, 18 h, ASSAY_TEST Inhibition of Bacterial Growth, detection method Absorption (OD600), MEDIA CAMHB, plate type 384well, NBS, CORNING #3640.
Description: Antibacterial activity against Klebsiella pneumoniae MDR ATCC 70063 (CO-ADD:GN_003); MIC in CAMBH media using NBS plates, by OD(600)
Test [7] relates to HEK293. Kind of test: cells. The format is functional, Homo sapiens, ATCC CRL1573. Conditions: Homo sapiens, ATCC CRL1573, HEK293; ASSAY_TEST Inhibition of Cell Viability; detection method Resazurin; Fluorescence (ex560/em590); MEDIA DMEM with 10% FBS; plate type 384well; TC; CORNING #3712; time 18 hr; read-out: CC50. In general terms: Alamar Blue is a resazurin reagent that responds to reducing activity.

For test [8], the system named is Cryptococcus neoformans.
Description: Antifungal activity against Cryptococcus neoformans H99 ATCC 208821 (CO-ADD:FG_002); MIC in YNB media using NBS plates, by Resazurin OD(600-570)
For test [9], the system named is Candida albicans. Kind of test: microbe, parasite or virus in culture. Conditions: ATCC 90028, ASSAY_TEST Inhibition of Fungal Growth, detection method Absorption (OD530), plate type 384well, NBS, CORNING #3640.
Description: Antifungal activity against Candida albicans ATCC 90028 (CO-ADD:FG_001); MIC in YNB media using NBS plates, by OD630

Usually CC50 stands for the concentration at which the toxic effect on the cells reaches its halfway point.

Take `Oc1cc(-c2cccc3ccccc23)[nH]n1`: the MIC in test [1], in [2], in test [3], in [4], in [5] and in [6] was greater than 20 µM each time. Moreover, the MIC in test [8] and in [9] was greater than 20 µM each time. The CC50 in test [7] is greater than 20 µM.

Turning to `C[C@H](c1cccc2ccccc12)N(C)Cc1ccccc1`, the MIC in [1], in [2], in test [3], in test [4], in test [5] and in test [6] was greater than 20 µM each time. The MIC in test [8] and in [9] was greater than 20 µM each time. For the same compound, in test [7], the CC50 was greater than 20 µM.

On to `O=C(NNC(=S)Nc1ccc(Cl)cc1)c1ccncc1`, for which the MIC in [1], in test [2], in test [3], in [4], in [5] and in test [6] was greater than 20 µM each time. Also, the MIC in [8] and in test [9] was greater than 20 µM each time. In addition, the CC50 in test [7] was greater than 20 µM.

Regarding `CC(C)c1ccc(COc2cccc(-c3cc([S+](C)[O-])c(C#N)c(=O)[nH]3)c2)cc1` (configuration not stated), the MIC in test [1], in test [2], in [3], in [4], in [5] and in test [6] was greater than 20 µM in each case. Moreover, the MIC in test [8] and in test [9] was greater than 20 µM each time. Besides, in test [7], the CC50 was greater than 20 µM.

Take `O=C(NCc1ncc(C(F)(F)F)cc1Cl)c1c(Cl)cccc1Cl`: the MIC in test [1], in [2], in [3], in test [4], in [5] and in [6] was greater than 20 µM in each case. Also, the MIC in test [8] and in test [9] was greater than 20 µM each time. For the same compound, the CC50 in test [7] is greater than 20 µM.

Take `CCCCCCC1c2ccc(O)cc2Oc2cc(O)ccc21`: the MIC in test [1], in test [2], in test [3], in test [4], in test [5] and in test [6] was greater than 20 µM in each case. The MIC in [8] and in test [9] was greater than 20 µM each time. Moreover, in [7], the CC50 was greater than 20 µM.

Consider `C[C@H]1[C@@H](c2cccc(C(F)(F)F)c2)OC(=O)N1C(=O)NCc1cncc2ccccc12`, for which the MIC in test [1], in test [2], in [3], in test [4], in test [5] and in test [6] was greater than 20 µM each time. In addition, the MIC in [8] and in [9] was greater than 20 µM each time. The CC50 in test [7] was greater than 20 µM.

Turning to `O=C(Nc1[nH]c(=O)ncc1F)c1ccccc1`, the MIC in test [1], in [2], in test [3], in test [4], in [5] and in test [6] was greater than 20 µM each time. Further, the MIC in [8] and in test [9] was greater than 20 µM throughout. Also, the CC50 in test [7] is greater than 20 µM.

Regarding `CNc1nc(=O)[nH]cc1F`, the MIC in [1], in [2], in test [3], in test [4], in [5] and in test [6] was greater than 20 µM each time. Further, the MIC in [8] and in [9] was greater than 20 µM throughout. Besides, the CC50 in test [7] is greater than 20 µM.

With `Cc1cc(NS(=O)(=O)c2ccc(-c3ccc(F)cc3F)cc2)no1`, the MIC in test [1], in test [2], in [3], in test [4], in test [5] and in test [6] was greater than 20 µM each time. The MIC in [8] and in test [9] was greater than 20 µM in each case. In addition, the CC50 in [7] was greater than 20 µM.

As to `OB1OCc2c1ccc(Cl)c2F`, the MIC in [1], in [2], in test [3], in [4], in test [5] and in test [6] was greater than 20 µM each time. In addition, the MIC worked out at 20 µM (≈ 3.73 µg/mL) in [8] and 10 µM (≈ 1.86 µg/mL) in [9]. The CC50 in [7] was greater than 20 µM.

Turning to `O=C(NC(=O)N1CCCc2ccccc21)c1ccc(Cl)cc1Cl`, the MIC in [1], in test [2], in test [3], in test [4], in test [5] and in [6] was greater than 20 µM in each case. In addition, the MIC in test [8] and in test [9] was greater than 20 µM throughout. Also, the CC50 in test [7] was greater than 20 µM.

As to `COc1cc(C2C3=C(CC(C)(C)CC3=O)Nc3ccccc3N2C(C)=O)ccc1OCc1ccccc1` (configuration not stated), the MIC in [1], in test [2], in [3], in test [4], in [5] and in test [6] was greater than 20 µM in each case. For the same compound, the MIC in [8] and in test [9] was greater than 20 µM throughout. Besides, in test [7], the CC50 was greater than 20 µM.

Turning to `CCCNc1ccc(S(=O)(=O)Nc2cc(C)on2)cc1`, the MIC in [1], in [2], in test [3], in [4], in test [5] and in test [6] was greater than 20 µM in each case. Besides, the MIC in test [8] and in test [9] was greater than 20 µM throughout. Besides, the CC50 in test [7] is greater than 20 µM.

In the case of `COC(=O)Nc1nc2c(C)cccc2[nH]1`, the MIC in test [1], in test [2], in test [3], in test [4], in [5] and in test [6] was greater than 20 µM in each case. For the same compound, the MIC in [8] and in test [9] was greater than 20 µM in each case. For the same compound, the CC50 in test [7] is greater than 20 µM.

With `N#C/C(=C1/SC[C@H](c2ccc(Cl)cc2Cl)S1)n1ccnc1`, the MIC in test [1], in [2], in test [3], in test [4], in test [5] and in [6] was greater than 20 µM each time. For the same compound, the figures for the MIC in test [8] and in test [9] were 0.625 µM (≈ 0.221 µg/mL) and 0.312 µM (≈ 0.111 µg/mL), respectively. Besides, the CC50 in test [7] was greater than 20 µM.

Turning to `CN(C)c1[nH]c(=O)ncc1F`, the MIC in test [1], in test [2], in [3], in [4], in test [5] and in [6] was greater than 20 µM throughout. Also, the MIC in test [8] and in [9] was greater than 20 µM in each case. Besides, the CC50 in [7] is greater than 20 µM.

In the case of `O=C(NC(=O)N1CCCc2ccccc21)c1cccc(Cl)c1`, the MIC in test [1], in [2], in [3], in [4], in test [5] and in test [6] was greater than 20 µM each time. The MIC in test [8] and in test [9] was greater than 20 µM each time. Besides, in [7], the CC50 is greater than 20 µM.
